Assay results: patent publication US8802235B2, “Drug and imaging agent delivery compositions and methods” (priority 2012, dated 2014)

Assays:
MCF-7 cells [1] = test: Cell growth inhibition (resazurin blue), MCF-7; type: cell-based, human; conditions: 72 hours after drug addition
Experimental: Plates were seeded with 3,000 cells/well in 100 μL of media (12 replicates/sample). Drug or conjugate solutions were applied after 24 hours. […] The in vitro anti-proliferative activities of cisplatin, NO-donating prodrug, and their star polymer-based conjugates, including acid-Pt, acid-NO, and combinational acid-Pt/acid-NO were evaluated in cell culture using a human breast cancer cell line, MCF-7. […] The acid-Pt appeared to be less cytotoxic than cisplatin in the cells. This is likely due to the slow release of the active drug, which was not unexpected for a sustained-delivery platform. One of the obstacles that has not yet been overcome in infusion chemotherapy is the poor tumor penetration and accumulation of small-molecule anti-cancer agents. Usually the majority of the chemotherapeutics have been cleared from systemic circulation, via the kidneys, before a significant concentration of the anti-cancer agent is achieved in the tumorigenic tissues. However, the acid-Pt and acid-NO nanoconjugates may greatly enhance the intratumoral drug concentration compared to the normal tissues due to the Enhanced Permeability and Retention effect (EPR), in which nanoformulations tend to penetrate tumors more effectively via leaky, fenestrated tumor blood vessels. […]

MDA-1986 cells [2] = test: Cell growth inhibition (resazurin blue), MDA-1986; type: cell-based, human; conditions: 72 hours
Experimental: (§1) Cell growth inhibition was determined in 96-well plates (3,000 cells/well in 100 μL, 12 replicates/sample) using highly invasive human breast cancer cells, MDA-MB-231, non-metastatic human breast cancer cells, MDA-MB-468, and highly invasive human head and neck squamous cell cancer cells positive for epithelia growth factor receptor, MDA-1986. Drug or conjugate solutions were applied after 24 hours, and 72 hours post-addition, resazurin blue in 10 μL of PBS was applied to each well (final concentration 5 μM).

MDA-MB-468 cells = test: Cell growth inhibition (resazurin blue), MDA-MB-468; type: cell-based, human; conditions: 72 hours
Experimental: as §1

MDA-MB-231 cells = test: Cell growth inhibition (resazurin blue), MDA-MB-231; type: cell-based, human; conditions: 72 hours
Experimental: as §1

MDA-1986 cells [3] = test: Nitric oxide release (Griess) in cell culture with MDA-1986 cells; type: cell-based, human
Experimental: The fluorescence intensity was measured between 520 and 550 nm using a fluorescence microplate reader.
The concentration of nitrite, the stable breakdown product of gaseous nitric oxide, was measured using Griess assay as an indirect measurement of nitric oxide concentration in cell culture media. The assay is based on the reaction between sulfanilamide, N-1-napthyethylenediamine dihydrochloride and nitrite, under acidic conditions to produce a […] azo compound.

MCF-7 cells [4] = system: MCF-7 cells

Question: How did the IC50 (MCF-7 cells [1]) turn out when `O=[N+]([O-])c1ccc(ON=[N+]([O-])N2CCN(CCOCCO)CC2)c([N+](=O)[O-])c1` [NO1, O^2-(2,4-Dinitrophenyl) 1-{[4-(2-(2-hydroxyethoxy))ethyl]piperazin-1-yl}diazen-1-ium-1,2-diolate] was run?
Answer: The IC50 was 48 ± 28 µM.

Question: And the IC50 (MDA-1986 cells [2])?
Answer: The IC50 was 33 ± 1 µM.

Question: What about the IC50 (MDA-MB-468 cells) of the same molecule?
Answer: The IC50 was 26 ± 4 µM.

Question: And the IC50 (MDA-MB-231 cells)?
Answer: The IC50 was 32 ± 3 µM.

Question: What about the “Release half-life” value (MDA-1986 cells [3]) of the same molecule?
Answer: The value was 7.1 h.

Question: What about the “Release half-life” value (MCF-7 cells [4]) of the same molecule?
Answer: The value was 7.4 h.
